Measured values as given in US20140135319A1, “6-SUBSTITUTED IMIDAZOPYRAZINES FOR USE AS MPS-1 AND TKK INHIBITORS IN THE TREATMENT OF HYPERPROLIFERATIVE DISORDERS” (BAYER INTELLECTUAL PROPERTY GMBH, priority 2010, published 2014).

Each molecule was assayed against T1, human kinase Mps-1 (Homo sapiens, UniProt P33981) (assay: Mps-1 kinase assay (TR-FRET)). Settings: GST-tagged human full length recombinant Mps-1; 10 μM ATP; 1 μM peptide substrate; 60 min at 22° C.
T1 construct: N-terminally GST-tagged human full length recombinant Mps-1 kinase; GST (N); purchased Invitrogen, Karslruhe, Germany PV4071
T1 sequence (P33981 1-857): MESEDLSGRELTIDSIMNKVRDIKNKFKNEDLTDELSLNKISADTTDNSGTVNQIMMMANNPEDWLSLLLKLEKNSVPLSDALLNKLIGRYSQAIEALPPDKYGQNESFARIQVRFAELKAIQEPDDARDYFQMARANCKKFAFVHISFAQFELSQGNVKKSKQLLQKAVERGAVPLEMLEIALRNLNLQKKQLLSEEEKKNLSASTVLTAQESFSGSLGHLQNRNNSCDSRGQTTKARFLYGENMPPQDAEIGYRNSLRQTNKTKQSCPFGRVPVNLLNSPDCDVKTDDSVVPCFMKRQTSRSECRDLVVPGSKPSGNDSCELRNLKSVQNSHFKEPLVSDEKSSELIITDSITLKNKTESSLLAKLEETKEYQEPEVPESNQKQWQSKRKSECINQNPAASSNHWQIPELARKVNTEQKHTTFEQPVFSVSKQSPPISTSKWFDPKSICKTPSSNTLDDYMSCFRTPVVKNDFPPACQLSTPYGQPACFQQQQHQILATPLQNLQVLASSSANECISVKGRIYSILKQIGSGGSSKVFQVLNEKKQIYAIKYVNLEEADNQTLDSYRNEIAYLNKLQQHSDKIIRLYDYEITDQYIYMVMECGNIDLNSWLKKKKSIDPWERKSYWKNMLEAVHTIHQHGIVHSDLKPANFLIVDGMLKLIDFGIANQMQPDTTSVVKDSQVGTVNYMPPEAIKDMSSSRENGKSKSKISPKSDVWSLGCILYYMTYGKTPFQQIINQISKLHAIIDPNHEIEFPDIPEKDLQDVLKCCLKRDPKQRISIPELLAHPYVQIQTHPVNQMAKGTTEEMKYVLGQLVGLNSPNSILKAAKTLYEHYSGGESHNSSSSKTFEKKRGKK
Type: biochemical
Summary of the method: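 N-terminally GST-tagged full-length recombinant human Mps-1, about 1 nM final, phosphorylates a biotinylated peptide. Product detected by TR-FRET from Eu-anti-phospho-Ser/Thr antibody to streptavidin-XLent after 1 h at 22° C.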

| Compound | IC50 |
| --- | --- |
| O=C(NC1CC1)c1ccc(-c2cnc3c(NCC4CCCO4)nc(-c4ccncc4)cn23)cc1Cl (stereo not drawn) [Example 1-42, 2-chloro-N-cyclopropyl-4-{6-(pyridin-4-yl)-8-[(tetrahydrofuran-2-ylmethyl)amino]imidazo [1,2-a]pyrazin-3-yl} benzamide] | 40.9 nM |
| O=C(NC1CC1)c1ccc(-c2cnc3c(NCC4CCCO4)nc(-c4ccncc4)cn23)cc1F (stereo not drawn) [Example 1-61, N-cyclopropyl-2-fluoro-4-{6-(pyridin-4-yl)-8-[(tetrahydrofuran-2-ylmethyl)amino]imidazo [1,2-a]pyrazin-3-yl} benzamide] | 13.1 nM |
| Cc1cc(-c2cnc3c(NCCC(F)(F)F)nc(-c4ccoc4)cn23)ccc1C(=O)NC1CC1 [Example 1-71, N-cyclopropyl-4-{6-(furan-3-yl)-8-[(3,3,3-tri-fluoropropyl)amino]imidazo[1,2-a]pyrazin-3-yl}-2-methylbenzamide] | 3.9 nM |
| O=C(NC1CC1)c1ccc(-c2cnc3c(NCCC(F)(F)F)nc(-c4ccncc4)cn23)cc1F [Example 1-53, N-cyclopropyl-2-fluoro-4-{6-(pyridin-4-yl)-8-[(3,3,3-trifluoropropyl)amino]imidazo[1,2-a]pyrazin-3-yl}benzamide] | 3.8 nM |
| CC(C)CNc1nc(-c2ccc(CN(C)C)cc2)cn2c(-c3ccc(C(=O)NC4CC4)cc3)cnc12 [Example 1-31, N-cyclopropyl-4-(6-{4-[(dimethylamino)methyl]phenyl}-8-[(2-methyl-propyl)amino]imidazo [1,2-a]pyrazin-3-yl) benzamide] | 3.3 nM |
| CC(C)CCNc1nc(-c2ccncc2)cn2c(-c3ccc(C(=O)NC4CC4)cc3)cnc12 [Example 3-6, N-cyclopropyl-4-{8-[(3-methylbutyl)amino]-6-(pyridin-4-yl)imidazo [1,2-a]pyrazin-3-yl} benzamide] | 2.4 nM |
| CC(C)CNc1nc(-c2cccc(CC(=O)O)c2)cn2c(-c3ccc(C(=O)NC4CC4)cc3)cnc12 [Example 1-88, (3-{3-[4-(cyclopropyl-carbamoyl)phenyl]-8-(iso-butylamino)imidazo[1,2-a]pyrazin-6-yl}phenyl)acetic acid] | 50.3 nM |
| CC(C)CNc1nc(-c2cc3ccccc3o2)cn2c(-c3ccc(C(=O)NC4CC4)cc3)cnc12 [Example 1-11, 4-{6-(1-benzofuran-2-yl)-8-[(2-methylpropyl)amino]imidazo[1,2-a]pyrazin-3-yl}-N-cyclo-propylbenzamide] | 78.8 nM |
| Cc1ccc(-c2cn3c(-c4ccc(C(=O)NC5CC5)cc4)cnc3c(NCC(C)(C)O)n2)cc1CC(N)=O [Example 1-99, 4-{6-[3-(2-Amino-2-oxo-ethyl)-4-methylphenyl]-8-[(2-hydroxy-2-methylpropyl)amino]imidazo[1,2-a]pyrazin-3-yl}-N-cyclopropylbenzamide] | 16.1 nM |
| Cc1cc(-c2cnc3c(NCCC(F)(F)F)nc(-c4cc[nH]n4)cn23)ccc1C(=O)NC1CC1 [Example 1-77, N-cyclopropyl-2-methyl-4-{6-(1H-pyrazol-3-yl)-8-[(3,3,3-trifluoropropyl)amino]imidazo[1,2-a]pyrazin-3-yl}benzamide] | 3.3 nM |
| CC(C)CNc1nc(-c2cc3ccccc3s2)cn2c(-c3ccc(C(=O)NC4CC4)cc3)cnc12 [Example 1-12, 4-{6-(1-benzothiophen-2-yl)-8-[(2-methylpropyl)amino]imidazo[1,2-a]pyrazin-3-yl}-N-cyclo-propylbenzamide] | 142 nM |
| Cc1cc(-c2cnc3c(NCCC(F)(F)F)nc(-c4ccncc4)cn23)ccc1C(=O)NC1CC1 [Example 1-103, N-cyclopropyl-2-methyl-4-{6-(pyridin-4-yl)-8-[(3,3,3-trifluoropropyl)amino]imidazo[1,2-a]pyrazin-3-yl}benzamide] | 1.3 nM |
| Cc1cc(-c2cnc3c(NCCC(F)(F)F)nc(-c4cnn(C)c4)cn23)ccc1C(=O)NC1CC1 [Example 1-69, N-cyclopropyl-2-methyl-4-{6-(1-methyl-1H-pyrazol-4-yl)-8-[(3,3,3-trifluoropropyl)amino]imidazo[1,2-a]pyrazin-3-yl}benzamide] | 3.8 nM |
| O=C(NC1CC1)c1ccc(-c2cnc3c(NCC4CCCO4)nc(-c4ccn[nH]4)cn23)cc1F (stereo not drawn) [Example 1-63, N-cyclopropyl-2-fluoro-4-{6-(1H-pyrazol-5-yl)-8-[(tetrahydrofuran-2-ylmethyl)amino]imidazo [1,2-a]pyrazin-3-yl} benzamide] | 95.5 nM |
| Cc1nnc(-c2ccc(-c3cn4c(-c5ccc(C(=O)NC6CC6)cc5)cnc4c(NCC(C)C)n3)cc2)o1 [Example 1-22, N-cyclopropyl-4-{6-[4-(5-methyl-1,3,4-oxadiazol-2-yl)phenyl]-8-[(2-methylpropyl)amino]imidazo[1,2-a]pyrazin-3-yl}benzamide] | 2.3 nM |
| NS(=O)(=O)CCNc1nc(-c2ccncc2)cn2c(-c3ccc(C(=O)NC4CC4)cc3)cnc12 [Example 3-35, N-cyclopropyl-4-{6-(pyridin-4-yl)-8-[(2-sulfamoylethyl)amino]imidazo [1,2-a]pyrazin-3-yl} benzamide] | 1.9 nM |
| O=C(NC1CC1)c1ccc(-c2cnc3c(NCCC(F)(F)F)nc(-c4ccncc4)cn23)cc1Cl [Example 1-36, 2-chloro-N-cyclopropyl-4-{6-(pyridin-4-yl)-8-[(3,3,3-trifluoropropyl)amino]imidazo[1,2-a]pyrazin-3-yl}benzamide] | 5.9 nM |
| O=C(NC1CC1)c1ccc(-c2cnc3c(NCCC(F)(F)F)nc(C4=CCOCC4)cn23)cc1Cl [Example 1-39, 2-chloro-N-cyclopropyl-4-{6-(3,6-dihydro-2H-pyran-4-yl)-8-[(3,3,3-trifluoropropyl)amino]imidazo[1,2-a]pyrazin-3-yl}benzamide] | 12.2 nM |
| CC(C)(O)CNc1nc(-c2ccn[nH]2)cn2c(-c3ccc(C(=O)NC4CC4)c(F)c3)cnc12 [Example 1-59, N-cyclopropyl-2-fluoro-4-{8-[(2-hydroxy-2-methylpropyl)amino]-6-(1H-pyrazol-5-yl)imidazo [1,2-a]pyrazin-3-yl} benzamide] | 101 nM |
| Cn1ccc(CNc2nc(-c3ccncc3)cn3c(-c4ccc(C(=O)NC5CC5)cc4)cnc23)n1 [Example 3-27, N-cyclopropyl-4-[8-{[(1-methyl-1H-pyrazol-3-yl)methyl]amino}-6-(pyridin-4-yl)imidazo [1,2-a]pyrazin-3-yl] benzamide] | 9.8 nM |

Continued, values first:

| IC50 | Compound |
| --- | --- |
| 10.5 nM | Cc1cc(-c2cnc3c(NCC4CC(F)(F)C4)nc(C4=CCOCC4)cn23)ccc1C(=O)NC1CC1 [Example 6-17, N-cyclopropyl-4-[8-{[(3,3-difluoro-cyclobutyl)methyl]amino}-6-(3,6-dihydro-2H-pyran-4-yl)imidazo [1,2-a]pyrazin-3-yl]-2-methylbenzamide] |
| 11.1 nM | Cc1cc(-c2cnc3c(NCC4CCC(C)(O)CC4)nc(C4=CCOCC4)cn23)ccc1C(=O)NC1CC1 (stereo not drawn) [Example 6-8, N-cyclopropyl-4-[6-(3,6-dihydro-2H-pyran-4-yl)-8-{[(4-hydroxy-4-methylcyclohexyl)methyl]amino}imidazo[1,2-a]pyrazin-3-yl]-2-methylbenzamide] |
| 6.5 nM | Cc1cc(-c2cnc3c(NCCC(F)(F)F)nc(C4=CCOCC4)cn23)ccc1C(=O)NC1CC1 [Example 6-2, N-cyclopropyl-4-{6-(3,6-dihydro-2H-pyran-4-yl)-8-[(3,3,3-trifluoro-propyl)amino]imidazo[1,2-a]pyrazin-3-yl}-2-methylbenzamide] |
| 1.5 nM | Cc1cc(-c2cnc3c(NCC(C)C)nc(-c4ccncc4)cn23)ccc1C(=O)NC1CC1 [Example 6-1, N-cyclopropyl-2-methyl-4-{8-[(2-methylpropyl)amino]-6-(pyridin-4-yl)imidazo[1,2-a]pyrazin-3-yl}benzamide] |
| 1.7 nM | Cc1cc(-c2cnc3c(NCC(C)(C)O)nc(Oc4cccc(F)c4)cn23)ccc1C(=O)NC1CC1 [Example 13-5, N-cyclopropyl-4-{6-(3-fluorophenoxy)-8-[(2-hydroxy-2-methylpropyl)amino]imidazo[1,2-a]pyrazin-3-yl}-2-methyl benzamide] |
| 4.4 nM | NC/C=C/CCNc1nc(-c2ccccc2)cn2c(-c3ccc(C(=O)NC4CC4)cc3)cnc12 [Example 4-2, 4-(8-{[(3E)-5-aminopent-3-en-1-yl]amino}-6-phenylimidazo[1,2-a]pyrazin-3-yl)-N-cyclopropylbenzamide] |
| 16 nM | Cc1cc(-c2cnc3c(NCCC(F)(F)F)nc(C4=CC[S+]([O-])CC4)cn23)ccc1C(=O)NC1CC1 (stereo not drawn) [Example 9-1, N-cyclopropyl-2-methyl-4-{6-(1-oxido-3,6-dihydro-2H-thiopyran-4-yl)-8-[(3,3,3-trifluoropropyl)amino]imidazo[1,2-a]pyrazin-3-yl}benzamide] |
